This is an account of results in US12391679B2, “Benzamide-substituted bicyclic imidazo- and pyrazolo-fused -pyridine, -pyrimide, and -pyridazine compounds for treatment of inflammatory diseases” (ONCO3R Therapeutics BV, priority 2019, dated 2025).

Molecules are shown by their SMILES.

The target in assay [1] is T1, SIK1 (Homo sapiens, UniProt P57059).
T1 construct: purchased Carna Biosciences 02-131
As to the kind of experiment: 33P radioactive kinase assay, SIK1. Format: biochemical. The protocol: (§1) The principle of the ^33P radioactive kinase assay consists in measuring the incorporated ^33P into the substrate AMARA peptide when phosphorylated by SIK1, SIK2 or SIK3 using [^33P]-g-ATP, which correlates with kinase activity.
(§2) The test compounds are prepared as a serial dilution of 10 point dose responses with 1/5 dilution steps in 100% DMSO starting from 2 mM highest concentration, diluted 1/20 in water and 5 μL is transferred to the assay plates (Greiner, Cat #651201).
(§3) 1% DMSO and 10 μM staurosporine final concentrations are used as negative and positive controls.
(§4) 11 μL of enzyme-substrate mixture is added on the assay plates. The reactions are started by adding 9 μL ATP mixture, consisting of non-labeled and ^33P-labeled ATP, on the assay plates.
(§5) The reactions are stopped by adding 25 μL phosphoric acid (150 mM) to the reactions.
(§6) The completely terminated kinase reactions are transferred using a harvester on pre-wetted UniFilter-96 plates (UniFilter-96 GF/B, PerkinElmer Inc., Cat #6005177).
(§7) After harvesting the kinase reactions, the filter plates are washed 6 times with phosphoric acid (75 mM). The back of the UniFilter-96 plates are sealed and 40 μL MicroScint-20 (PerkinElmer Inc., Cat #6013621) is added to each well. The top of the plates are sealed with TopSeal-A. Read-out is performed with a TopCount instrument (PerkinElmer Inc.).
(§8) Raw data are generated following the read-out performed on the TopCount, plotted to generate dose response curves to calculate percentage inhibition (PIN) and average IC50 for each SIK homologue which are reported in the table below.

The target of assay [2] is T2, SIK2 (Homo sapiens, UniProt Q9H0K1).
T2 construct: purchased ThermoFisher Scientific PV4792
Briefly: 33P radioactive kinase assay, SIK2. Also: AMARA 5 µM, 10 µM ATP. Format: biochemical. The protocol: as §1, §2, §3, §4, §5, §6, §7, §8

Assay [3] addresses T3, SIK3 (Homo sapiens, UniProt Q9Y2K2).
T3 construct: purchased SignalChem S12-11G-100
Briefly: 33P radioactive kinase assay, SIK3. It is filed as biochemical. The conditions noted are these: 33P radioactive assay; AMARA 7 μM; 15 μM ATP; 80 min; average IC50. How it is done: as §1, §2, §3, §4, §5, §6, §7, §8

The target in assay [4] is T1, SIK1. Briefly: ADP-Glo kinase assay, SIK1. It is filed as biochemical. A digest of the protocol:
(§9)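 ADP-Glo format, luminescent. Room-temperature kinase reaction lasting 120 min, followed by ATP removal (40 min) and ADP detection (30 min); 10 μM staurosporine serves as full-inhibition control, 1% DMSO as uninhibited control.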
For orientation: ADP-Glo first removes unused ATP, then detects ADP through luciferase.

The target of assay [5] is T2, SIK2. As to the kind of experiment: ADP-Glo kinase assay, SIK2. Format: biochemical. A digest of the protocol:
as §9

In assay [6] the target is T3, SIK3. As to the kind of experiment: ADP-Glo kinase assay, SIK3. It is filed as biochemical. A digest of the protocol:
as §9

For assay [7], the system named is LPS-induced TNFα in monocyte-derived macrophages. As to the kind of experiment: MdM assay: LPS-triggered TNFα (ELISA). It is filed as cell-based, human. To be noted: Macrophage; human MdM; LPS 200 ng/mL; supernatant after 20 h; inhibition of TNFα; read-out: TNFα EC50. How it is done: This assay evaluates illustrative compounds of the invention for their inhibition of LPS-induced TNFα and LPS triggered IL-10 secretion in monocyte-derived macrophages. PBMCs are isolated from human blood samples (buffycoats). The buffy coat is aseptically transferred into a 50 mL Falcon tube, and diluted 1/2 in PBS. Falcon tubes are filled with 20 mL LymphoprepTM, on top of which 25 mL of the buffy coat is carefully added, tubes are centrifuged for 35 min at 400 g in temperature controlled centrifuge, without brake, at 25° C. PBMCs are aspirated from the white interface layer between sample and LymphoprepTM. PBMCs are washed five times in PBS. […] PBMCs are centrifuged at 300×g for 10 min and resuspended at a density of 1.0*10^7 cells/80 μL Miltenyi buffer (PBS, pH 7.4, 1% FBS, 2 mM EDTA). Starting from this point of the protocol all steps are performed on ice. 20 μL of CD14+ micro-beads are added per 1.0*10^7 cells, the tube is mixed and incubated for 15 min in the fridge at 4° C. Cell suspension volume is adjusted to total volume of 100 mL using Miltenyi buffer, mixed gently and subsequently centrifuged for 10 min at 300×g. Supernatant is discarded and cell pellet is resuspended in 12 mL of Miltenyi buffer. Four LS columns are placed in the MACS Separator (magnet) from Miltenyi Biotec, and are prewet by rinsing with 3 mL of MACS buffer per column. Three mL of cell suspension is added onto the column (max 1*10^8 of labelled cells/column), and columns are subsequently washed 3 times with 3 mL of Miltenyi buffer. The columns are removed from the magnets, and 5 mL of Miltenyi buffer are added to the column to flush out the CD14+ fraction by pushing the plunger into the column. The flushed fractions are collected in a fresh 50 mL Falcon and volume is adjusted to 30 mL using Miltenyi buffer, cells are centrifuged for 10 min at 300×g. The obtained cell pellet is resuspended in 10 mL RPMI w/o FBS, and cell density is determined using a hematologic analyser (Sysmex XS-500i). […] On day 10, MdMs are triggered and compound is added. A compound dilution plate is made in 100% DMSO by 3-fold dilution of 10 mM stock solution. An intermediate dilution plate (10× final concentration) is made by diluting the compound dilution plate […] in RPMI medium. Medium is carefully removed from cell plates using multichannel pipette, and replaced by 80 μL fresh medium. 10 μL of the 10× final concentration compound is added to the cells and incubated for 1 hour at 37° C. before addition of trigger. No trigger conditions/trigger conditions are spiked with equal final DMSO concentrations of 0.2% DMSO. 10 μL of 10×LPS (final conc. 200 ng/mL) solution are added to all wells except for the 'no trigger wells' where 10 μL medium is added. Supernatant is collected after 2 h (IL-10 determination) and after 20 h (TNFα determination) of LPS triggering. […] The plate is then washed once with PBST (PBS+0.05% Tween20) and once with PBS followed by the addition of 100 μL of blocking buffer (1% Bovine Serum Albumin (BSA) -5% Sucrose) and plates are sealed and incubated for at least 4 h at RT. After washing the plate once with PBST and once with PBS, 40 μL of standard or sample are added (TNFα standard curve is prepared using a 1/2 serial dilution starting from 16000 pg/mL; dilutions are made in dilution buffer (PBS+1% BSA)). Plates are washed twice with PBST, and once with PBS, after which 35 μL of the detection antibody is added (final concentration 0.25 μg/mL diluted in dilution buffer) and plates are incubated for at least 2 h at RT. Plates are washed twice with PBST, and once with PBS, where after 35 μL of Strep-HRP conjugate (0.5 μg/mL final concentration diluted in dilution buffer) is added. […] Plates are washed twice with PBST, and once with PBS. Thereafter, 50 μL of luminol substrate is added to each well (prepared according to manufacturer's instructions), and incubated for 5 min at RT protected from light.

T3 sequence (Q9Y2K2 59-365 limits assumed): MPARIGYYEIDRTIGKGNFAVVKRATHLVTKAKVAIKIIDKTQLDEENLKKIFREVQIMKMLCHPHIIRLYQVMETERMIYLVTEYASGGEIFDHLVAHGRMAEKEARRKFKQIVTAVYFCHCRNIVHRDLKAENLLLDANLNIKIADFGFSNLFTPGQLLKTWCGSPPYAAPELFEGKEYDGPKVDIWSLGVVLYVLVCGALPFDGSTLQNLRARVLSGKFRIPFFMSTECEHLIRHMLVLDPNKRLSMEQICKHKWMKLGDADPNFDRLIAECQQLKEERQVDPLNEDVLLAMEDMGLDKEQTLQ
T1 sequence (P57059 whole entry): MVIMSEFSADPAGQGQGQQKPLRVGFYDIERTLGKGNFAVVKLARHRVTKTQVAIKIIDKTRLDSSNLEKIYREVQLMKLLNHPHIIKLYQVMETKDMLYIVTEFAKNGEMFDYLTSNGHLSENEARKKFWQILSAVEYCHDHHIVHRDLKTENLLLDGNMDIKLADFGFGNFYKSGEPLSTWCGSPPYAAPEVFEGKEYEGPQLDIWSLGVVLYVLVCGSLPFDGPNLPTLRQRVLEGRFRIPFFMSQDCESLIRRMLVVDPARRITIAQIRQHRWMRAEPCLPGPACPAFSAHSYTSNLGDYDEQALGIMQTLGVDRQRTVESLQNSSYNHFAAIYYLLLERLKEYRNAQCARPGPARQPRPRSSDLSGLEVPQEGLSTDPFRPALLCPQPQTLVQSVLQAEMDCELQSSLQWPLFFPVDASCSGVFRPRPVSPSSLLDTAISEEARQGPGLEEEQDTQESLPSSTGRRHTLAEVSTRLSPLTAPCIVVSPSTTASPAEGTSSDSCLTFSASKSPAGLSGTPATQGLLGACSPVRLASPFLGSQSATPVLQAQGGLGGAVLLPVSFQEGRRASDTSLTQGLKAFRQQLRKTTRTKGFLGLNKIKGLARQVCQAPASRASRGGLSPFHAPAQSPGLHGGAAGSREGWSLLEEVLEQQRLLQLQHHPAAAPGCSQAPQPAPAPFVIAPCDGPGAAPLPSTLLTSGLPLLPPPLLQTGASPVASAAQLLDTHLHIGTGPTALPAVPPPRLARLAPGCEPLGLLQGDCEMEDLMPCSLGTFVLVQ
T2 sequence (Q9H0K1 whole entry): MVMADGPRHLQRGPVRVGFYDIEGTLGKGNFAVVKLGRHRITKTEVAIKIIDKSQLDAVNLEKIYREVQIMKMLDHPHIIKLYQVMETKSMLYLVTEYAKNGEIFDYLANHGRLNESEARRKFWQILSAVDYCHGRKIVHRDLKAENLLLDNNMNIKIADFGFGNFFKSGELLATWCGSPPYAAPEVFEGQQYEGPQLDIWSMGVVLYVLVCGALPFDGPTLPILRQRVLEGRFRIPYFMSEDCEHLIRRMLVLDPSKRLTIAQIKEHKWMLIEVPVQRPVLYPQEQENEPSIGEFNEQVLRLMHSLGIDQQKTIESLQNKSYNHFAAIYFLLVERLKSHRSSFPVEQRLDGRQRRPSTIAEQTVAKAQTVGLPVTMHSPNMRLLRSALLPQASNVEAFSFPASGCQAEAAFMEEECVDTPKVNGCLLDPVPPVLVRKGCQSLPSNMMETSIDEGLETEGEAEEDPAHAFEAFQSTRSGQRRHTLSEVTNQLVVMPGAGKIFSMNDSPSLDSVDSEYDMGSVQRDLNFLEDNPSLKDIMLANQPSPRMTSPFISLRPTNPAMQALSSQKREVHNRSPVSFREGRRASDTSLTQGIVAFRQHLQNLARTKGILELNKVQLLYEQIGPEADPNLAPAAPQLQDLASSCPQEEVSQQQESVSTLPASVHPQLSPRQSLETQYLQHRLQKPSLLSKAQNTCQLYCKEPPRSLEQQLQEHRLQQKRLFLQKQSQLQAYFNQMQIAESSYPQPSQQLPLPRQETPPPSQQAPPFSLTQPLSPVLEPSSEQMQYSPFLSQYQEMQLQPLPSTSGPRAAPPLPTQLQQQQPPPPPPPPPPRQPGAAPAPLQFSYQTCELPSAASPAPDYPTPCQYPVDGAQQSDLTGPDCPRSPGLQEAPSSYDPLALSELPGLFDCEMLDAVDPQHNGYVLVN

Usually IC50 stands for the midpoint of a concentration-inhibition curve. As usually defined, the EC50 is the concentration giving half of the maximal effect. As for `COc1cc(-c2cnc3cc(C4CCCN(C)C4)ccn23)cc(OC)c1C(=O)NCC(F)(F)F` (stereo not shown) [Cpd 24, 2,6-dimethoxy-4-[7-(1-methyl-3-piperidyl)imidazo[1,2-a]pyridin-3-yl]-N-(2,2,2-trifluoroethyl)benzamide], the IC50 on SIK1 [1] was over 500 nM; on SIK2 [2], 100 to 500 nM; at SIK3 [3], 10 to 100 nM; against SIK1 [4], over 500 nM; on SIK2 [5], 100 to 500 nM; on SIK3 [6], 10 to 100 nM. Also, the EC50 in assay [7] was in the range of 1000 to 5000 nM.

For `COc1cc(-c2cnc3cc(C(C)(C)C#N)ccn23)cc2c1C(=O)N(CC(F)(F)F)CC2` [Cpd 25, 2-[3-[8-methoxy-1-oxo-2-(2,2,2-trifluoroethyl)-3,4-dihydroisoquinolin-6-yl]imidazo[1,2-a]pyridin-7-yl]-2-methyl-propanenitrile], the 50% inhibitory concentration (IC50) on SIK1 [1] was over 500 nM; at SIK2 [2] it was over 500 nM; on SIK3 [3], 10 to 100 nM; at SIK1 [4], over 500 nM; on SIK2 [5], over 500 nM; against SIK3 [6], 10 to 100 nM. Also, the EC50 in assay [7] lay within 1000 to 5000 nM.

In the case of `COc1cc(-c2cnc3cc(C(C)(C)C#N)ccn23)cc2c1C(=O)NCC2` [Cpd 20, 2-[3-(8-methoxy-1-oxo-3,4-dihydro-2H-isoquinolin-6-yl)imidazo[1,2-a]pyridin-7-yl]-2-methyl-propanenitrile], the IC50 was over 500 nM on SIK1 [1]; over 500 nM on SIK2 [2]; 10 to 100 nM at SIK3 [3]; over 500 nM at SIK1 [4]; over 500 nM against SIK2 [5]; 10 to 100 nM at SIK3 [6]. In addition, in assay [7], the EC50 was in the range of 1000 to 5000 nM.

With `COc1cc(-c2cnc3cc(C(C)C#N)ccn23)cc(OC(F)F)c1C(=O)NC1CC1` (stereo not shown) [Cpd 26, 4-[7-(1-cyanoethyl)imidazo[1,2-a]pyridin-3-yl]-N-cyclopropyl-2-(difluoromethoxy)-6-methoxy-benzamide], the IC50 was over 500 nM on SIK1 [1]; 100 to 500 nM at SIK2 [2]; 10 to 100 nM on SIK3 [3]; over 500 nM on SIK1 [4]; 100 to 500 nM against SIK2 [5]; 0.01 to 10 nM on SIK3 [6]. The EC50 in assay [7] is 100 to 1000 nM.

As for `COc1cc(-c2cnc3cc(C4(C#N)CCC4)ccn23)cc(OC(F)F)c1C(=O)NC1CC1` [Cpd 34, 4-[7-(1-cyanocyclobutyl)imidazo[1,2-a]pyridin-3-yl]-N-cyclopropyl-2-(difluoromethoxy)-6-methoxy-benzamide], the IC50 on SIK1 [1] was over 500 nM; at SIK2 [2], over 500 nM; on SIK3 [3], 10 to 100 nM; at SIK1 [4], over 500 nM; against SIK2 [5] it was 100 to 500 nM; on SIK3 [6], 0.01 to 10 nM. For the same compound, the EC50 in assay [7] was 100 to 1000 nM.

As to `COc1cc(-c2cnc3cc(C(C)(C)C#N)ccn23)cc(OC)c1C(=O)NCC#N` [Cpd 32, N-(cyanomethyl)-4-[7-(1-cyano-1-methyl-ethyl)imidazo[1,2-a]pyridin-3-yl]-2,6-dimethoxy-benzamide], the IC50 on SIK1 [1] was over 500 nM; at SIK2 [2] it was over 500 nM; on SIK3 [3], 10 to 100 nM; against SIK1 [4], over 500 nM; at SIK2 [5], over 500 nM; at SIK3 [6] it was 10 to 100 nM.

As for `COc1cc(-c2cnc3cc(C4CCCNC4)ccn23)cc(OC)c1C(=O)NCC(F)(F)F` (stereo not shown) [Cpd 23, 2,6-dimethoxy-4-[7-(3-piperidyl)imidazo[1,2-a]pyridin-3-yl]-N-(2,2,2-trifluoroethyl)benzamide], the IC50 at SIK1 [1] was over 500 nM; at SIK2 [2], 100 to 500 nM; at SIK3 [3], 10 to 100 nM; against SIK1 [4], over 500 nM; on SIK2 [5] it was 100 to 500 nM; against SIK3 [6] it was 10 to 100 nM.

Consider `COc1cc(-c2cnc3cc(C4CCN(C(=O)OC(C)(C)C)CC4)ccn23)cc(OC)c1C(=O)NCC(F)(F)F` [Cpd 16, tert-butyl 4-[3-[3,5-dimethoxy-4-(2,2,2-trifluoroethylcarbamoyl)phenyl]imidazo[1,2-a]pyridin-7-yl]piperidine-1-carboxylate], for which the IC50 on SIK1 [1] was over 500 nM; at SIK2 [2], 100 to 500 nM; on SIK3 [3], 10 to 100 nM. Further, the EC50 in assay [7] is over 5000 nM.

On to `CCNC(=O)c1c(OC)cc(-c2cnc3cc(C(C)(C)C#N)ccn23)cc1OC` [Cpd 30, 4-[7-(1-cyano-1-methyl-ethyl)imidazo[1,2-a]pyridin-3-yl]-N-ethyl-2,6-dimethoxy-benzamide], for which the IC50 at SIK1 [1] is over 500 nM; at SIK2 [2] it was over 500 nM; on SIK3 [3], 100 to 500 nM; on SIK1 [4], over 500 nM; against SIK2 [5] it was over 500 nM; against SIK3 [6], 10 to 100 nM.

With `COc1cc(-n2cnc3cc(C(C)(C)C#N)ccc32)cc(OC)c1C(=O)NC1CC1` [Cpd 11, 4-[5-(1-cyano-1-methyl-ethyl)benzimidazol-1-yl]-N-cyclopropyl-2,6-dimethoxy-benzamide], the IC50 was over 500 nM at SIK1 [1]; over 500 nM at SIK2 [2]; over 500 nM at SIK3 [3]; over 500 nM against SIK1 [4]; over 500 nM against SIK2 [5]; 100 to 500 nM on SIK3 [6].

In the case of `COc1cc(-c2cnc3cc(C(C)(C)C#N)ccn23)cc(OC)c1C(=O)NCC(F)(F)F` [Cpd 17, 4-[7-(1-cyano-1-methyl-ethyl)imidazo[1,2-a]pyridin-3-yl]-2,6-dimethoxy-N-(2,2,2-trifluoroethyl)benzamide], the IC50 at SIK1 [1] is over 500 nM; at SIK2 [2], over 500 nM; on SIK3 [3], 10 to 100 nM; at SIK1 [4], over 500 nM; against SIK2 [5], over 500 nM; against SIK3 [6], 10 to 100 nM. Moreover, the EC50 in assay [7] was in the range of 100 to 1000 nM.
